For assay [1], the system named is human squamous cell carcinoma of the head and neck (SCCHN) cell line FaDu. In words: FaDu growth inhibition assay. Format: cell-based. To be noted: 3 days incubation, CellTiter-Glo. As for the experimental part: In this assay, the growth inhibitory activity of test compounds in a human squamous cell carcinoma of the head and neck (SCCHN) cell line FaDu was measured. FaDu cells were maintained in an RPMI-1640 (Wako Pure Chemical Industries, Ltd., 187-02021) medium containing 10% fetal bovine serum (FBS: Nichirei, 12D168), and penicillin and streptomycin in a 5% CO2 incubator (37° C.). To each well of a 96 well plate (Becton, Dickinson and Company, 353219), 75 μL of FaDu cell suspension adjusted to a concentration of 4×10^4 cells/mL with the culture medium was added, and the cells were incubated overnight in a 5% CO2 incubator (37° C.). On the next day, 25 μL of Compound (1) or Halichondrin B in three-fold dilution series suspended in the culture medium was added to each well, and the resultant was incubated for 3 days in a 5% CO2 incubator (37° C.). Then, cell viability was determined by CellTiter-Glo® Luminescent Cell Viability Assay (Promega) with EnVision 2103 Multilabel Reader (Perkin-Elmer, Wellesley, Mass.). Value of the wells containing cells without adding the test compounds was defined as 100% and the value of the wells containing no cells was defined as 0%. The concentration of the test compound necessary for inhibiting the cell growth by 50% (i.e., an IC50 value) was calculated, and shown in Table 1.
A general note: ATP-based viability assays read luminescence as a measure of living cells.

The subject of assay [2] is FaDu subcutaneous xenograft. In words: Antitumor effects in FaDu subcutaneous xenograft model in combination with cetuximab in mice, single dose (Test Example 21). The class given is in vivo. Conditions: single dose Day 1. The method, then:
A human squamous cell carcinoma of the head and neck (SCCHN) cell line FaDu, which had been cultured in an RPMI-1640 medium containing 10% FBS, and penicillin-streptomycin, was adjusted to a concentration of 5×10^7 cells/mL with Hanks' Balanced Salt Solution to prepare a cell suspension. The cell suspension was inoculated in a volume of 100 μL into a subcutaneous part of a right flank of athymic mice (CAnN.Cg-Foxnlnu/CrlCrlj, female, 7 weeks old, Charles River Japan Inc.). Ten days after cell inoculation (Day 1), the length and the width of a tumor in each mouse were measured by using an electronic digital caliper (Mitutoyo Corporation), so as to calculate the volume of the tumor in accordance with the following calculation formula: Tumor volume (mm^3)=Longest diameter (mm)×Shortest diameter (mm)×Shortest diameter (mm)/2 Relative tumor volume (RTV)=Tumor volume (day X)/Tumor volume (the first day)
On the basis of TV, the mice were randomly grouped (Day 1). Each group was consisted in six mice. Compound (1) was dissolved in DMSO and a solution was stored in the freezer before use.

The subject of assay [3] is FaDu-Luc subcutaneous xenograft. In words: FaDu s.c. xenograft model in combination with radiation. The class given is in vivo, mice. The method, then:
Luciferase-transduced FaDu-Luc cells were established by retrovirus-mediated gene transfer. […]. Then, helper-free recombinant retroviruses were produced by transfecting the above retroviral expression vector together with pGP and pE-Ampho plasmids (Takara Bio; Shiga, Japan), into 293T cells (ATCC; Manassas, USA). Next, FaDu cells were infected with the recombinant retroviruses, and were cultured for two weeks in the presence of puromycin (2 μg/mL). The infected cells were selected from a polyclonal proliferative population of the culture.
A luciferase-transduced human SCCHN cell line FaDu-Luc, which had been cultured in an RPMI-1640 medium containing 10% FBS, and penicillin and streptomycin, was adjusted to a concentration of 5×10^7 cells/mL with Hank's Balanced Salt Solution to prepare a cell suspension. The cell suspension was inoculated in a volume of 100 μL into a subcutaneous part of a right thigh of nude mice, 6 weeks of ages (CAnN.Cg-Foxnlnu/CrlCrlj, female, Charles River Laboratories Japan, Inc.). Thirteen days after the cell inoculation, the tumor volume was analyzed using bioluminescence signal from FaDu-Luc cells. […] The bioluminescence signal was monitored using the IVIS […] series (PerkinElmer, Waltham, Mass.), consisting of a highly sensitive, cooled chargecoupled device camera. […] Data were analyzed using total photon flux emission (photons/second) in the ROIs. […]

The subject of assay [4] is HCC1806 subcutaneous xenograft. In words: Antitumor activity against HCC1806 subcutaneous xenograft model in mice as monotherapy. The class given is in vivo. Conditions: 0.18 mg/kg intravenously, Q7D×2. The method, then:
A human breast cancer cell line HCC1806, which had been cultured in an RPMI-1640 medium containing 10% FBS, and penicillin and streptomycin, was adjusted to a concentration of 1×10^8 cells/mL with PBS to prepare a cell suspension, and the suspension was mixed with Matrigel™ (BD Bioscience, #366237) in a ratio of 1:1 to prepare a cell suspension in a concentration of 5×10^7 cell/mL. The cell suspension was inoculated in a volume of 100 μL into a subcutaneous part of a right flank of nude mice, 5 weeks of ages (CAnN.Cg-Foxnlnu/CrlCrlj, female, Charles River Laboratories Japan, Inc.).
On the basis of the volumes of tumors obtained on the first day of administration, the mice were grouped such that averages of the tumor volumes were substantially equal among the groups. The experiment was conducted on groups each consisting of 6 mice. Test compound was dissolved in saline and intravenously administered at 0.18 mg/kg once a week for 2 weeks (Q7D×2 schedule).

Assay [5] concerns HSC-2-Luc orthotopic transplantation (tongue). In words: HSC-2 orthotopic transplantation mouse model. The class given is in vivo, mice.

SMILES strings stand for the structures.

For orientation: IC50 means the concentration at which inhibition is half-maximal. High values mean lower potency, low ones higher potency. `C=C1C[C@@H]2CC[C@@]34C[C@H]5O[C@H]6[C@@H](O3)[C@H]3O[C@H](CC[C@@H]3O[C@H]6C5O4)CC(=O)O[C@@H]3[C@@H](C)[C@@H]4O[C@@H]5C[C@]6(C[C@@H]7O[C@]8(C[C@H](C)[C@@H]9O[C@H](CN)[C@H](O)C[C@@H]9O8)C[C@H](C)[C@@H]7O6)O[C@@H]5C[C@@H]4O[C@H]3C[C@H]3O[C@@H](CC[C@@H]1O2)C[C@@H](C)C3=C` [Compound (1)] displayed an IC50 in assay [1] of 0.0714 nM. Further, the “antitumor efficacy with CTX” value is given as “stronger than that of CTX monotherapy with tumor regression” in assay [2] (180 μg/kg + CTX 10 mg/kg), “tended to be stronger than that of CTX monotherapy” in assay [2] (20 mg/kg + CTX 10 mg/kg) and “stronger than that of CTX monotherapy with tumor regression” in assay [2] (60 mg/kg + CTX 10 mg/kg). Further, the “Tumor Regression (%)” value in assay [3] (0.09 mg/kg on day 1 and 8 + radiation 18 Gy on day 4 and day 11) amounted to 97%; in assay [3] (0.09 mg/kg on day 1 and 8, without radiation) it was 0%; in assay [4], 90%. Besides, the “survived mice on Day 100” value in assay [5] (Compound (1)+CTX combination group, n=16) is 10. Also, the bioluminescence signal entry in assay [5] (with cetuximab, after Day 14) was “clearly reduced the bioluminescence signal in all mice”.

The record behind these values is patent US11725015B2, “Macrocyclic compound and uses thereof” (President and Fellows of Harvard College, priority 2017, dated 2023).
